{"source": "patent US20180117150A1", "about": "“Combination Therapies for CD38-Positive Hematological Malignances with ANTI-CD38 Antibodies and Cyclophosphamide” (Janssen Biotech, Inc., priority 2016, published 2018)", "key": {"MM1S cells [1]": {"tested_on": "MM1S cells", "test": "Daratumumab-mediated MM1S tumor cell clearance in co-culture with conditioned THP-1 macrophages (ADCP assay)", "assay_type": "cell-based", "details": "for daratumumab-mediated tumor cell killing by macrophages (% specific MM1S cell clearance): THP-1 conditioned 48 hours with media of treated MM1S, 1 μg/ml daratumumab, E:T 2:1, 18 hours, FIG. 4", "procedure": "FIG. 4 illustrates the level of MM1S tumor cell clearance in co-culture of MM1S cells and THP-1 macrophages. Prior to initiation of co-cultures, THP-1 cells were cultured 48 hours in conditioned media generated from untreated MM1S tumor cells or MM1S cells treated with lenalidomide (FIG. 4A), bortezomib (FIG. 4B) or cyclophosphamide (CTX) alone or in combination with bortezomib or lenalidomide (FIG. 4C). MM1S cells were stained with calcein and incubated with daratumumab or IgG1 isotype control ([…]) and co-culture with THP-1 cells at a 2:1 effector to target ratio for 18 hours. Cell frequency was determined using the Accuri C6 (Right). The % specific cell clearance was calculated by the following formula:\n100−100*(The frequency of calcein stained MM1S cells in the presence of 1 μg/ml daratumumab/\nThe frequency of calcein stained MM1S cells in the presence of Isotype control).\nCo-cultures of MM1S and THP-1 cells were incubated in the presence of cytochalasin to assess if daratumumab mediated MM1S killing by ADCP. […] FIG. 5 illustrates the level of daratumumab-mediated tumor cell clearance in co-cultures of MM1S and THP-1 cells. Prior to initiation of co-cultures, THP-1 cells were cultured 48 hours in conditioned media generated from untreated MM1S tumor cells or MM1S cells treated with lenalidomide (FIG. 5A) or cyclophosphamide alone or in combination with lenalidomide or bortezomib (FIG. 5B) in the absence or presence of 1 μg/ml cytochalasin D. The % specific cell clearance was calculated by the following formula: […]"}, "[2]": {"tested_on": "CD47 on CD45-CD19-CD138+ plasma cells", "details": "24 hour treatment vs baseline", "protocol": "Ethics: Pre-screened newly diagnosed MM patients were enrolled into the sub-clinical study by informed consent according to predetermined protocols and standard operating procedures for sample draw and included extraction of relevant details from medical records.\nSamples Isolation: Isolation of mononuclear cells (MC) from PB and BM aspirates were performed by layering 3mL EDTA-anti-coagulated sample over 3mL endotoxin-free Ficoll Plaque density-gradient medium (GE Healthcare, Little Chalfont, United Kingdom) in 15-mL Falcon tubes (Sarstedt, North Rhine-Westphalia, Niimbrecht, Germany), and centrifuged at 420 relative centrifugal force (RCF) for 22 minutes at 4° C. without braking. The “buffy coat” layer was isolated and washed twice with Fluorescence-activated cell sorting (FACS buffer) [2% foetal calf serum (Lonza, Basel, Switzerland), PBS and 0.05% NaN3 (Sigma-Aldrich, St. Louis, Mo., USA)]. […] Cells were counted using a haemocytometer and 5×10^5 cells per sample were stained for phenotypic characterisation by flow cytometry\nCharacterisation Studies: Plasma cells: Cell surface expression of CD38, CD47, CD319 (SLAMF7), B-cell maturation antigen (BCMA), MIC A/B, Programmed death-ligand (PDL) 1, PDL2, CD54, CD11a and CD48 were analysed on CD45-CD19-CD138+ Plasma cells by flow cytometry. […]"}, "[3]": {"tested_on": "CD38 expression on multiple myeloma cells (MM1S)", "test": "Flow cytometry of cell surface CD38 expression on treated MM1S cells", "details": "48 hours after treatment, CTX 2.5, 5, 10 μM, CTX 10 μM with Bort 1 nM or Len 1 μM, FIG. 1", "protocol": "(§1) Cells: The multiple myeloma cell line, MM1S, was sub-cultured in RPMI 1640 media supplemented with 10% FBS and 50 IU/ml penicillin and 50 μg/ml Streptomycin. […] THP-1 cells were sub-cultured in RPMI 1640 media supplemented with 10% FBS and 50 IU/ml Penicillin and 50 μg/ml streptomycin. Cells were plated at a cell density of 2×10^5 cells/ml for experiments. […] Fresh media was added and the cells were further incubated for 24 hours after collecting the conditioned media. […] All antibodies were purchased from BD Pharmingen™ unless otherwise stated. Cells were stained with anti-CD38 (APC-conjugated) and anti-CD47 (FITC-conjugated, eBiosciences) antibodies and the level of expression of CD38 and CD47 was assessed. Sytox advanced reagents were used to assess cell death. Cells were analysed by flow cytometry. Sytox positive cells were excluded from analysis. The mean fluorescent intensity was calculated by expressing the fluorescent intensity of each sample relative to the cell size. […] FcγRI and FcγRlla/b expression was assessed by flow cytometry 48 hours later using anti-FcγRI (APC-conjugated) and anti- FcγRIIa/b (PE-conjugated) antibodies. The mean fluorescent intensity was calculated by expressing the fluorescent intensity of each sample relative to the cell size and subtracting the values for the isotype control/unstained samples."}, "MM1S cells [4]": {"tested_on": "MM1S cells", "assay_type": "cell-based, human", "details": "for proportion of tumour cell clearance accounted for by ADCP: ± 1 μg/ml cytochalasin D, n=1", "procedure": "Antibody Dependant cellular phagocytosis (ADCP): To determine the number of macrophages per sample, 50 μl of 5×10^6 cells/mL concentration of MC isolated from PB and BM were diluted using 150 μl FACS buffer. Based on forward and side scatter profiles, the total number of macrophages were determined by timed acquisition events per unit volume using an Accuri™ C6. […] Cells were washed, incubated with mouse anti-human CD45-APC (BD Biosciences, San Jose, CA) and mouse anti-human CD14-PerCP-Cy5.5 (Miltenyi Biotech, Cologne, Germany) for 15 mins, then washed and re-suspended in 200 μl FACS buffer for sample acquisition. Macrophage and MM1S cells were gated using CFSE+ and CD45+CD14+ cells gating. Cell frequency was determined using the BD Canto IITM flow cytometer. Antibody-dependent phagocytosis was assessed and quanti?ed as follows: Phagocytosis was quanti?ed by frequency of remaining target cells (CFSE positive) with and without Ab treatment or isotype control. […] ADCP mediated clearance was calculated using the following formula: 100-100*(Proportion of live Dara-treated MM1S cells in untreated macrophage co-culture/ Proportion of live Dara-treated MM1S cells in CytoD conditioned macrophage co-culture)."}, "[5]": {"tested_on": "CD64 (FcγRI) expression on THP-1 macrophages", "test": "CD64 (FcγRI) expression on THP-1 macrophages incubated in conditioned media from treated MM1S cells", "details": "THP-1 cells, 48 hours in conditioned media from treated MM1S cells; FIG. 3A", "protocol": "as §1"}, "[6]": {"tested_on": "CD32 (FcγRIIa/b) expression on THP-1 macrophages", "test": "CD32 (FcγRIIa/b) expression on THP-1 macrophages incubated in conditioned media from treated MM1S cells", "details": "THP-1 cells, 48 hours in conditioned media from treated MM1S cells; FIG. 3B", "protocol": "as §1"}, "[7]": {"tested_on": "CD47 expression on multiple myeloma cells (MM1S)", "test": "Flow cytometry of cell surface CD47 expression on treated MM1S cells", "details": "24 hours after treatment, CTX 2.5, 5, 10 μM, CTX 10 μM with Bort 1 nM or Len 1 μM, FIG. 2C", "protocol": "as §1"}}, "note": "Like-named read-outs stand apart in the source and are kept apart here.", "data": [{"compound": "C=C1[C@@H](C)[C@H]2[C@H](Cc3ccccc3)NC(=O)[C@]23[C@H](OC(C)=O)/C=C/[C@@](C)(O)C(=O)[C@@H](C)C/C=C/[C@H]3[C@@H]1O", "note": "[Cytochalasin D]", "values": [{"measurement": "daratumumab-mediated tumor cell clearance in the presence of cytochalasin D", "setting": "MM1S cells [1]; 1 μg/ml cytochalasin D in MM1S/THP-1 co-cultures, FIG. 5", "value": "reduced"}]}, {"compound": "CC(C)C[C@H](NC(=O)[C@H](Cc1ccccc1)NC(=O)c1cnccn1)B(O)O", "note": "[bortezomib]", "values": [{"measurement": "daratumumab-mediated tumor cell killing by macrophages (% specific MM1S cell clearance)", "setting": "MM1S cells [1]", "value": "potentiated"}]}, {"compound": "O=P1(N(CCCl)CCCl)NCCCO1", "note": "(centres unmarked) [cyclophosphamide]", "values": [{"measurement": "CD47 surface expression (MFI) on plasma cells, bone marrow", "setting": "[2]; BM, n=3, P=0.0555, FIG. 6B", "value": "decreased"}, {"measurement": "CD47 surface expression (MFI) on plasma cells, peripheral blood", "setting": "[2]; PB, n=3, cyclophosphamide 150-300 mg/m^2, FIG. 6A", "value": "decreased"}, {"measurement": "mean fluorescence intensity (MFI) of cell surface CD38 expression", "setting": "[3]", "value": "induced"}, {"measurement": "proportion of tumour cell clearance accounted for by ADCP", "setting": "MM1S cells [4]; BM macrophages 24 hours after treatment with cyclophosphamide, FIG. 8C", "value": "> 25", "unit": "%"}, {"measurement": "tumour cytotoxicity by macrophages in co-culture of PB or BM-derived macrophages and multiple myeloma cells", "setting": "MM1S cells [4]; patient macrophages 24 hours after treatment vs prior to treatment", "value": "augmented"}, {"measurement": "daratumumab-mediated tumor cell killing by macrophages (% specific MM1S cell clearance)", "setting": "MM1S cells [1]", "value": "potentiated"}, {"measurement": "daratumumab-mediated tumor cell killing by macrophages (% specific MM1S cell clearance)", "setting": "MM1S cells [1]; listed as Cyclophosphamide", "value": "augmented"}, {"measurement": "mechanism of the potentiation of anti-myeloma activity of daratumumab", "setting": "MM1S cells [1]; concluded from cytochalasin D inhibition, FIG. 5", "value": "dependent on macrophage mediated ADCP"}, {"measurement": "MFI of cell surface CD64 (FcγRI) expression", "setting": "[5]", "value": "induced"}, {"measurement": "MFI of cell surface CD32 (FcγRIIa/b) expression", "setting": "[6]", "value": "induced"}, {"measurement": "mean fluorescence intensity (MFI) of cell surface CD47 expression", "setting": "[7]", "value": "reduced"}]}, {"compound": "Nc1cccc2c1CN(C1CCC(=O)NC1=O)C2=O", "note": "(centres unmarked) [lenalidomide]", "values": [{"measurement": "daratumumab-mediated tumor cell killing by macrophages (% specific MM1S cell clearance)", "setting": "MM1S cells [1]", "value": "potentiated"}, {"measurement": "daratumumab-mediated tumor cell killing by macrophages (% specific MM1S cell clearance)", "setting": "MM1S cells [1]; listed as lenalodomide", "value": "augmented"}]}, {"compound": "daratumumab", "values": [{"measurement": "proportion of tumour cell clearance accounted for by ADCP", "setting": "MM1S cells [4]; BM macrophages prior to treatment, FIG. 8C", "value": "> 15", "unit": "%"}, {"measurement": "difference between Dara and Isotype within the ADCP assay", "setting": "MM1S cells [4]; patient had received Daratumumab 16 mg/kg infusion, FIG. 8C", "value": "minimal difference"}]}]}
